Publication PMC7713294, “Multiplicity of carotene patterns derives from competition between phytoene desaturase diversification and biological environments” (Scientific Reports, 2020)

Legend:
Experiment in all cases: HPLC-UV time course, global Michaelis-Menten fit (COPASI)
Type in all cases: biochemical
[1] = biological target: T1, I3_Rc (Rhodobacter capsulatus, UniProt P17054); conditions: phytoene liposomes (soy lecithin), FAD, pH 8.0, 30 °C, Kd = kr/kf fitted with bounded rate constants
T1 construct: gene crtI; full length, codon optimized, C-terminal His6, E. coli BL21(DE3), TALON purified with FAD; species only as initials
T1 sequence (P17054 whole entry): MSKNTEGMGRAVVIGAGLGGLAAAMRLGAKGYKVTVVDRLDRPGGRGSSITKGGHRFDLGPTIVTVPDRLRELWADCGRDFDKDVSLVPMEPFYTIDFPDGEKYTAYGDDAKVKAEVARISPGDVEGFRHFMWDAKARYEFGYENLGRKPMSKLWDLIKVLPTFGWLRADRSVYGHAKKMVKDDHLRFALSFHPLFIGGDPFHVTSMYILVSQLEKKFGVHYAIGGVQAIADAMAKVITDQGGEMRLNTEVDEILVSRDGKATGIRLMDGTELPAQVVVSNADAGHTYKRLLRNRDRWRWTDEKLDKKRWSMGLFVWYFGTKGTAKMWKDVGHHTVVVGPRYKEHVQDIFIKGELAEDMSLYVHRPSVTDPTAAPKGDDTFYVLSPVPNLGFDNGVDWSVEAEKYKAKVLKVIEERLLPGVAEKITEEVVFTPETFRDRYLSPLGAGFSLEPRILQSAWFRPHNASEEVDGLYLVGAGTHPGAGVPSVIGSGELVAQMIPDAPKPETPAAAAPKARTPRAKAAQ

[2] = biological target: T2, I4_Bt (CrtI from Blakeslea trispora) (Blakeslea trispora, UniProt Q67GI0); conditions: phytoene liposomes (soy lecithin), FAD, pH 8.0, 30 °C; Kd = kr/kf fitted with bounded rate constants
T2 construct: gene carB; full length, codon optimized, C-terminal His6, E. coli BL21(DE3), TALON purified with FAD
T2 sequence (Q67GI0 1-582): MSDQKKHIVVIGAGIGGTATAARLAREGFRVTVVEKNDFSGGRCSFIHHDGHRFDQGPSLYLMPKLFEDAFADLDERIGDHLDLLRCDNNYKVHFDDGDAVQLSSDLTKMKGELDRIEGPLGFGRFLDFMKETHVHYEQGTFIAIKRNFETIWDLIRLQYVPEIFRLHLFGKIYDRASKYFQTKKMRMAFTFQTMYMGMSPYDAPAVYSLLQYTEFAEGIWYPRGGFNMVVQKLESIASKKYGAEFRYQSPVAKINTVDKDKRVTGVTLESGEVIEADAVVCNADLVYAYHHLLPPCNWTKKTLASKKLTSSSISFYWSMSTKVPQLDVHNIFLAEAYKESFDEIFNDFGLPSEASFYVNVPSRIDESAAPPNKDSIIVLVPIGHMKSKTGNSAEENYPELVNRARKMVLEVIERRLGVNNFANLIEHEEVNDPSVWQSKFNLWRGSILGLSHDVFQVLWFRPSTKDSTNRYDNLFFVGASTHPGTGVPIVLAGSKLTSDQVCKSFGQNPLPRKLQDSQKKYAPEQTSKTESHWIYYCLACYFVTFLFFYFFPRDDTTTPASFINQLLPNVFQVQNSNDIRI

[3] = biological target: T3, I4_Ma (Mycolicibacterium aurum, UniProt Q9K566); conditions: phytoene liposomes (soy lecithin), FAD, pH 8.0, 30 °C, Kd = kr/kf fitted with bounded rate constants
T3 construct: gene crtI; full length, codon optimized, C-terminal His6, E. coli BL21(DE3), TALON purified with FAD; species only as initials (Ma), read as Mycobacterium aurum
T3 sequence (Q9K566 entry or part of it): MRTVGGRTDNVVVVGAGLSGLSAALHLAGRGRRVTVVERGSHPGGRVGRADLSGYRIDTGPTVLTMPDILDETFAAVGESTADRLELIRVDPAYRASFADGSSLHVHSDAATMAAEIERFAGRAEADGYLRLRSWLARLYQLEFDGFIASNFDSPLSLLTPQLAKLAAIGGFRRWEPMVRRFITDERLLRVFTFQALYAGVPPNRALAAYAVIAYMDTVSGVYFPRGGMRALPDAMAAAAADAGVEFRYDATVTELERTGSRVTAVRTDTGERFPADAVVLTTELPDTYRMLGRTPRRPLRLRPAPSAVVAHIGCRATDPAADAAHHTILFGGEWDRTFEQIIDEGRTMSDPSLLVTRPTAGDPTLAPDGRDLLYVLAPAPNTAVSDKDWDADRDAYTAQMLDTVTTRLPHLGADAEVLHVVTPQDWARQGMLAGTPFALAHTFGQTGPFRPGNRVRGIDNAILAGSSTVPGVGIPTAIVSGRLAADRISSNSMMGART

Kd ([1]; lycopene production poorly fitted for I3_Rc) [nM]	Kd [2] [nM]	Kd ([3]; intermediate formed in situ from phytoene) [nM]	Kd [1] [nM]	Kd [3] [nM]	Compound
33000	1600	2100	–	–	CC(C)=CCC/C(C)=C/C=C/C(C)=C/C=C/C(C)=C/C=C/C=C(C)/C=C/C=C(\C)CC/C=C(\C)CCC=C(C)C [neurosporene]
–	7900	–	1100	13100	CC(C)=CCC/C(C)=C/CC/C(C)=C/CC/C(C)=C/C=C\C=C(/C)CC/C=C(\C)CC/C=C(\C)CCC=C(C)C [phytoene]
–	4700	–	1000	1000	CC(C)=CCC/C(C)=C/CC/C(C)=C/C=C/C(C)=C/C=C/C=C(\C)CC/C=C(\C)CC/C=C(\C)CCC=C(C)C [phytofluene]
–	2500	–	23000	2300	CC(C)=CCC/C(C)=C/CC/C(C)=C/C=C/C(C)=C/C=C/C=C(C)/C=C/C=C(\C)CC/C=C(\C)CCC=C(C)C [ζ-carotene]
